Experimental data reported in PubChem BioAssay (NCI).
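In this assay, cells in 96-well plates receive the compound at five concentrations for 48 hours. Endpoints are linearly interpolated between the surrounding concentrations. The concentration for 50% growth inhibition is given as GI50. At the TGI there is no net growth.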

Legend:
Experiment in all cases: growth of human tumour cells (NCI), 48 h
LOX IMVI melanoma = test system: LOX IMVI melanoma
ACHN renal = test system: ACHN renal
SK-MEL-5 melanoma = test system: SK-MEL-5 melanoma
SF-295 CNS = test system: SF-295 CNS
UO-31 renal = test system: UO-31 renal
A549 NSCLC = test system: A549 NSCLC
NCI-H226 lung = test system: NCI-H226 lung
786-0 renal = test system: 786-0 renal
MDA-MB-231 breast = test system: MDA-MB-231 breast
HCT-116 colon = test system: HCT-116 colon
SK-OV-3 ovarian = test system: SK-OV-3 ovarian
T-47D breast = test system: T-47D breast
MALME-3M melanoma = test system: MALME-3M melanoma
K-562 leukemia = test system: K-562 leukemia
M14 melanoma = test system: M14 melanoma
HCC-2998 colon = test system: HCC-2998 colon
HT29 colon = test system: HT29 colon
SK-MEL-28 melanoma = test system: SK-MEL-28 melanoma
TK-10 renal = test system: TK-10 renal
SF-268 CNS = test system: SF-268 CNS
A498 renal = test system: A498 renal
OVCAR-4 ovarian = test system: OVCAR-4 ovarian
OVCAR-8 ovarian = test system: OVCAR-8 ovarian
HS 578T breast = test system: HS 578T breast
UACC-257 melanoma = test system: UACC-257 melanoma
HOP-62 NSCLC = test system: HOP-62 NSCLC
RXF 393 renal = test system: RXF 393 renal
HL-60(TB) leukemia = test system: HL-60(TB) leukemia
SF-539 CNS = test system: SF-539 CNS
OVCAR-3 ovarian = test system: OVCAR-3 ovarian
SNB-75 CNS = test system: SNB-75 CNS
SK-MEL-2 melanoma = test system: SK-MEL-2 melanoma
PC-3 prostate = test system: PC-3 prostate
NCI/ADR-RES ovarian = test system: NCI/ADR-RES ovarian
U251 CNS = test system: U251 CNS
DU-145 prostate = test system: DU-145 prostate
UACC-62 melanoma = test system: UACC-62 melanoma
CAKI-1 renal = test system: CAKI-1 renal
HCT-15 colon = test system: HCT-15 colon
SN12C renal = test system: SN12C renal
RPMI-8226 leukemia = test system: RPMI-8226 leukemia
SW-620 colon = test system: SW-620 colon
COLO 205 colon = test system: COLO 205 colon
OVCAR-5 ovarian = test system: OVCAR-5 ovarian
MDA-MB-435 = test system: MDA-MB-435
NCI-H23 lung = test system: NCI-H23 lung
MCF7 breast = test system: MCF7 breast
IGROV1 ovarian = test system: IGROV1 ovarian
SR leukemia = test system: SR leukemia

Compound: OCCNc1nc(NCCO)nc(Nc2ccc(C3=NN(c4cc(Cl)cc(Cl)c4)C(c4ccc(C(F)(F)F)cc4)C3)cc2)n1 (stereo not drawn)
- GI50 (LOX IMVI melanoma): 1560 nM
- TGI (LOX IMVI melanoma): 2970 nM
- GI50 (ACHN renal): 1370 nM
- TGI (ACHN renal): 2660 nM
- GI50 (SK-MEL-5 melanoma): 1720 nM
- TGI (SK-MEL-5 melanoma): 3110 nM
- GI50 (SF-295 CNS): 1360 nM
- TGI (SF-295 CNS): 2710 nM
- GI50 (UO-31 renal): 1550 nM
- TGI (UO-31 renal): 2920 nM

Compound: N#CSCC1CC(O)(c2ccccc2)C(c2ccccc2)C(c2ccc(Cl)cc2)O1 (stereo not drawn)
- GI50 (A549 NSCLC): 1780 nM
- TGI (A549 NSCLC): 4240 nM
- GI50 (NCI-H226 lung): 2270 nM
- TGI (NCI-H226 lung): 4620 nM
- GI50 (LOX IMVI melanoma): 1580 nM
- TGI (LOX IMVI melanoma): 2970 nM
- GI50 (ACHN renal): 1600 nM
- TGI (ACHN renal): 3020 nM
- GI50 (786-0 renal): 1740 nM
- TGI (786-0 renal): 3280 nM
- GI50 (SK-MEL-5 melanoma): 1630 nM
- TGI (SK-MEL-5 melanoma): 2980 nM
- GI50 (MDA-MB-231 breast): 1800 nM
- TGI (MDA-MB-231 breast): 4790 nM
- GI50 (HCT-116 colon): 569 nM
- TGI (HCT-116 colon): 1990 nM
- GI50 (SK-OV-3 ovarian): 2680 nM
- TGI (SK-OV-3 ovarian): 6210 nM
- GI50 (T-47D breast): 1070 nM
- TGI (T-47D breast): 3530 nM
- GI50 (MALME-3M melanoma): 1520 nM
- TGI (MALME-3M melanoma): 3020 nM
- GI50 (SF-295 CNS): 1750 nM
- TGI (SF-295 CNS): 4220 nM
- GI50 (K-562 leukemia): 1370 nM
- TGI (K-562 leukemia): 5420 nM
- GI50 (M14 melanoma): 1530 nM
- TGI (M14 melanoma): 3150 nM
- GI50 (HCC-2998 colon): 1840 nM
- TGI (HCC-2998 colon): 3350 nM
- GI50 (HT29 colon): 1020 nM
- TGI (HT29 colon): 2450 nM
- GI50 (SK-MEL-28 melanoma): 1970 nM
- TGI (SK-MEL-28 melanoma): 4500 nM
- GI50 (TK-10 renal): 2010 nM
- TGI (TK-10 renal): 4200 nM
- GI50 (SF-268 CNS): 1670 nM
- TGI (SF-268 CNS): 4740 nM
- GI50 (A498 renal): 2160 nM
- TGI (A498 renal): 5630 nM
- GI50 (OVCAR-4 ovarian): 1220 nM
- TGI (OVCAR-4 ovarian): 2530 nM
- GI50 (OVCAR-8 ovarian): 1780 nM
- TGI (OVCAR-8 ovarian): 3830 nM
- GI50 (HS 578T breast): 3220 nM
- TGI (HS 578T breast): 81000 nM
- GI50 (UACC-257 melanoma): 1610 nM
- TGI (UACC-257 melanoma): 3390 nM
- GI50 (HOP-62 NSCLC): 2080 nM
- TGI (HOP-62 NSCLC): 3960 nM
- GI50 (RXF 393 renal): 1620 nM
- TGI (RXF 393 renal): 3240 nM
- GI50 (HL-60(TB) leukemia): 1550 nM
- TGI (HL-60(TB) leukemia): 5770 nM
- GI50 (SF-539 CNS): 1760 nM
- TGI (SF-539 CNS): 3170 nM
- GI50 (OVCAR-3 ovarian): 782 nM
- TGI (OVCAR-3 ovarian): 2290 nM
- GI50 (SNB-75 CNS): 1550 nM
- TGI (SNB-75 CNS): 4280 nM
- GI50 (SK-MEL-2 melanoma): 2330 nM
- TGI (SK-MEL-2 melanoma): 4370 nM
- GI50 (PC-3 prostate): 1850 nM
- TGI (PC-3 prostate): 4980 nM
- GI50 (NCI/ADR-RES ovarian): 1670 nM
- TGI (NCI/ADR-RES ovarian): 3430 nM
- GI50 (U251 CNS): 1580 nM
- TGI (U251 CNS): 3120 nM
- GI50 (DU-145 prostate): 2020 nM
- TGI (DU-145 prostate): 4670 nM
- GI50 (UACC-62 melanoma): 1410 nM
- TGI (UACC-62 melanoma): 2810 nM
- GI50 (CAKI-1 renal): 1670 nM
- TGI (CAKI-1 renal): 4140 nM
- GI50 (HCT-15 colon): 1430 nM
- TGI (HCT-15 colon): 3380 nM
- GI50 (SN12C renal): 1410 nM
- TGI (SN12C renal): 2910 nM
- GI50 (RPMI-8226 leukemia): 1440 nM
- TGI (RPMI-8226 leukemia): 4680 nM
- GI50 (SW-620 colon): 1630 nM
- TGI (SW-620 colon): 3930 nM
- GI50 (COLO 205 colon): 1460 nM
- TGI (COLO 205 colon): 2840 nM
- GI50 (OVCAR-5 ovarian): 2130 nM
- TGI (OVCAR-5 ovarian): 3860 nM
- GI50 (MDA-MB-435): 1400 nM
- TGI (MDA-MB-435): 2880 nM
- GI50 (UO-31 renal): 1330 nM
- TGI (UO-31 renal): 2680 nM
- GI50 (NCI-H23 lung): 1570 nM
- TGI (NCI-H23 lung): 3030 nM
- GI50 (MCF7 breast): 1270 nM
- TGI (MCF7 breast): 3210 nM
- GI50 (IGROV1 ovarian): 2000 nM
- TGI (IGROV1 ovarian): 3740 nM
- GI50 (SR leukemia): 1900 nM
- TGI (SR leukemia): 4950 nM
